# US20250084056A1, “SUBSTITUTED OXOISOINDOLINYL PIPERIDINE-2,6-DIONE COMPOUNDS” (BRISTOL-MYERS SQUIBB COMPANY, priority 2023, published 2025)
# What was measured:
# Assay type in all cases: cell-based
# Phospho-Rb (Ser807/811) = assay: Phospho-Retinoblastoma (pRB) Cellular Assay; conditions: NIH OVCAR3 cells, 24 hours; for IC50: concentration giving 50% response; for Emax: maximum response, reference compound at 10 μM = 100%, read-out: pRB Ymax
# Outline: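 OVCAR3 cells seeded overnight, then dosed with serial dilutions for 24 h at 37° C. Lysed with kit mix plus phosphatase inhibitor, ≥4 h at room temperature, read on EnVision; 100% response set by reference compound at 10 μM, giving IC50 and Ymax.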
# GSPT1 = GSPT1 (Homo sapiens, UniProt P15170+Q96SW2); assay: GSPT1 Cellular Degradation Assay (DF15-GSPT1-ePL); set-up: expressed in transfected cells; conditions: DF15-GSPT1-ePL cells, 20 hours
# Sequence of GSPT1 (P15170 whole entry, the tested form may be a part): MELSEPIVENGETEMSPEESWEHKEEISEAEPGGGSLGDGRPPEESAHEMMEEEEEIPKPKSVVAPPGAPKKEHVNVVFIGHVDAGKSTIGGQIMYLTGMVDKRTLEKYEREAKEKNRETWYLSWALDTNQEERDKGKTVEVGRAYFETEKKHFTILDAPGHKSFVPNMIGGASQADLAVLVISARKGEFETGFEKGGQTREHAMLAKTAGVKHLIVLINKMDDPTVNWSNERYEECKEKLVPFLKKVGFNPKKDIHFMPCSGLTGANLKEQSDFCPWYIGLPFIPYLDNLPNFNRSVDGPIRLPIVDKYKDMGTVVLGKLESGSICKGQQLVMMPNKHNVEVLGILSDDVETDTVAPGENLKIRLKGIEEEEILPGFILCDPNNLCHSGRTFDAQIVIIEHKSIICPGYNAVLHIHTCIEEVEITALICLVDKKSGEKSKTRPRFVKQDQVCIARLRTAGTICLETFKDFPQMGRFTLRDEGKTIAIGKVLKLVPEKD
# Sequence of GSPT1 (Q96SW2 whole entry, the tested form may be a part): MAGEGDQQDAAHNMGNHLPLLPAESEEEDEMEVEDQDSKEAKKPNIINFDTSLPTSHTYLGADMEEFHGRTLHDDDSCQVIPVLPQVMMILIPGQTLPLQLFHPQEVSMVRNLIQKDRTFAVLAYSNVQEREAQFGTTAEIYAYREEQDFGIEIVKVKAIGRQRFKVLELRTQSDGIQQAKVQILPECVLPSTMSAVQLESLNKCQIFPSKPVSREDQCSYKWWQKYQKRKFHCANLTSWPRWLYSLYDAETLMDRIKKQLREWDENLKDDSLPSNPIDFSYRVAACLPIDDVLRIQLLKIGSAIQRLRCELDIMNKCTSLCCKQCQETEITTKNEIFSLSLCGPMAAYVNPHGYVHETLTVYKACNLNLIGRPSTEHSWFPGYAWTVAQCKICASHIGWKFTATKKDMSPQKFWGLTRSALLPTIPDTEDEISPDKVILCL
# Sequence of GSPT1 (Q16531 whole entry partner, the tested form may be a part): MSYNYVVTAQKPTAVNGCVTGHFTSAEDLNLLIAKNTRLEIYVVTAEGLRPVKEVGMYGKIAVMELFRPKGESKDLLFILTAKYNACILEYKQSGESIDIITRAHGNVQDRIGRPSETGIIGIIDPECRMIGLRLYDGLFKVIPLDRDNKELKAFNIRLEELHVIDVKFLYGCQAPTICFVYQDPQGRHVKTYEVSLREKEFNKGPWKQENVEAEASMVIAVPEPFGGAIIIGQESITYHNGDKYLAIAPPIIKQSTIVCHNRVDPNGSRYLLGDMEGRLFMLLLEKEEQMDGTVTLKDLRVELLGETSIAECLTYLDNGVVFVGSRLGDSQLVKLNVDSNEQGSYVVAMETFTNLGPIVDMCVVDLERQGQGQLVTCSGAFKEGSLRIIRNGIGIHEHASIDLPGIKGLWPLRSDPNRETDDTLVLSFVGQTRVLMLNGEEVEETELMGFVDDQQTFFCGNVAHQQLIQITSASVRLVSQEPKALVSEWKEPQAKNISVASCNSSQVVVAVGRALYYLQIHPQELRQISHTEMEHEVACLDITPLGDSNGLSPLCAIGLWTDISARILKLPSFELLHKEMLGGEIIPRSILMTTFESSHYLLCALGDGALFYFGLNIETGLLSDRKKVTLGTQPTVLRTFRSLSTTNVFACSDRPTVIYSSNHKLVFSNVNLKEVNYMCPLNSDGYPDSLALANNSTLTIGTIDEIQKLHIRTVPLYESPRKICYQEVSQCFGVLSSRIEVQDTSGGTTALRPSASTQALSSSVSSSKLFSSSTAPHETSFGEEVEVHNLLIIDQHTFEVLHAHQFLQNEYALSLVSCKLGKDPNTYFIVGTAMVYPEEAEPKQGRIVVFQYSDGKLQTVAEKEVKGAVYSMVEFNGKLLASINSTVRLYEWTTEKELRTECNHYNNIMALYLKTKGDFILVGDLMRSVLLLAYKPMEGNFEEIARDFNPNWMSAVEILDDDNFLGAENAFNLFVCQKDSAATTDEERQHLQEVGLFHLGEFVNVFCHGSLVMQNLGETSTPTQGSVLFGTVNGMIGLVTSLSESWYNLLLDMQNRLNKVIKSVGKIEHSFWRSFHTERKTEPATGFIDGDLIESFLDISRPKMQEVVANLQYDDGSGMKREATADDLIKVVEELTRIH
# Outline: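 Human DF15 cells co-expressing a GSPT1–ePL fusion were treated with compound in RPMI 1640/10% FBS for 20 h at 37 °C. GSPT1 level was read by enzyme-fragment-complementation luminescence after 60 min with detection reagent. The reference degrader at […] defined 75% response; DC50 and Dmax were reported.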
# Cyclin E1 = Cyclin E1 (Homo sapiens, UniProt P24864+Q96SW2); assay: Cyclin E1 Cellular Degradation Assay (MSD); set-up: endogenous in cells; host or cells: OVCAR3; conditions: for DC50 / Dmax: Cyclin E1 cellular degradation; for Dmax: maximum degradation; for Ratio of GSPT1 DC50/Cyclin E1 DC50: selectivity for degradation of Cyclin E1 over GSPT1
# Sequence of Cyclin E1 (P24864 whole entry): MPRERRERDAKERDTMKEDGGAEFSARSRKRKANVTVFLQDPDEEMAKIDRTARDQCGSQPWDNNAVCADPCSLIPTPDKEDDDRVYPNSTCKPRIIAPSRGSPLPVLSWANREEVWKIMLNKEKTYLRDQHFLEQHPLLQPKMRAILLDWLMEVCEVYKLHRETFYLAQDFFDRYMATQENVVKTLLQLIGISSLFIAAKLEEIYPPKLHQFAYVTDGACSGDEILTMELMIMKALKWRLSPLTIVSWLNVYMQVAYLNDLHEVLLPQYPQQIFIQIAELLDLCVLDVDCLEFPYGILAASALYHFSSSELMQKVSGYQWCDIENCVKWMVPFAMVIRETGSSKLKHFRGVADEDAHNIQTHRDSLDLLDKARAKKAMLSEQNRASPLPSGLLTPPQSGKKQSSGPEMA
# Sequence of Cyclin E1 (Q96SW2 whole entry): as the sequence (Q96SW2 whole entry, the tested form may be a part) above
# Sequence of Cyclin E1 (Q16531 whole entry partner): as the sequence (Q16531 whole entry partner, the tested form may be a part) above
# Outline: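 OVCAR3 cells treated with compound for 24 h at 37 °C, lysed, and cyclin E1 measured by MSD sandwich immunoassay (rabbit capture, mouse detection anti-CCNE1). Reference degrader at […] defined 110% response; DC50 and Dmax derived from response.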
Compound,"IC50 (Phospho-Rb (Ser807/811); Homo sapiens, OVCAR-3)",DC50 (GSPT1),Dmax (GSPT1),DC50 (Cyclin E1),Dmax (Cyclin E1),Ratio of GSPT1 DC50/Cyclin E1 DC50 (Cyclin E1),IC50 (Phospho-Rb (Ser807/811)),"Emax (Phospho-Rb (Ser807/811); Homo sapiens, OVCAR-3)"
"CC(C)Oc1c(COC(=O)Nc2ccc(Oc3ccc(F)cc3)cc2)ccc2c1C(=O)N(C1CCC(=O)NC1=O)C2 (stereo not shown) [Example 59, [2-(2,6-dioxopiperidin-3-yl)-3-oxo-4-(propan-2-yloxy)-2,3-dihydro-1H-isoindol-5-yl]methyl N-[4-(4-fluorophenoxy)phenyl]carbamate]",175 nM,> 14000 nM,48%,131 nM,104%,>107,–,113%
"COc1c(COC(=O)Nc2ccc(Oc3cccc(F)c3Cl)cc2)ccc2c1C(=O)N(C1CCC(=O)NC1=O)C2 (stereo not shown) [Example 111, [2-(2,6-dioxopiperidin-3-yl)-4-methoxy-3-oxo-2,3-dihydro-1H-isoindol-5-yl]methyl N-[4-(2-chloro-3-fluorophenoxy)phenyl]carbamate]",74 nM,> 14000 nM,15%,95 nM,106%,>147,–,99%
"O=C1CCC(N2Cc3ccc(COC(=O)Nc4ccc(Oc5cccc(F)c5F)cc4)c(Oc4ccccc4)c3C2=O)C(=O)N1 (stereo not shown) [Example 68, [2-(2,6-dioxopiperidin-3-yl)-3-oxo-4-phenoxy-2,3-dihydro-1H-isoindol-5-yl]methyl N-[4-(2,3-difluorophenoxy)phenyl]carbamate]",83 nM,> 14000 nM,16%,179 nM,107%,>78,–,127%
"COc1c(COC(=O)Nc2ccc(Oc3cccc(F)c3)cc2)ccc2c1C(=O)N(C1CCC(=O)NC1=O)C2 (stereo not shown) [Example 4, [2-(2,6-dioxopiperidin-3-yl)-4-methoxy-3-oxo-2,3-dihydro-1H-isoindol-5-yl]methyl N-[4-(3-fluorophenoxy)phenyl]carbamate]",89 nM,> 14000 nM,35%,39 nM,108%,>355,–,109%
"COc1c(COC(=O)Nc2ccc(Oc3ccc4ccsc4c3)cc2)ccc2c1C(=O)N(C1CCC(=O)NC1=O)C2 (stereo not shown) [Example 115, [2-(2,6-dioxopiperidin-3-yl)-4-methoxy-3-oxo-2,3-dihydro-1H-isoindol-5-yl]methyl N-[4-(1-benzothiophen-6-yloxy)phenyl]carbamate]",247 nM,10300 nM,63%,217 nM,108%,48,–,114%
"O=C1CCC(N2Cc3ccc(COC(=O)Nc4ccc(Oc5ccc(F)cc5Cl)cc4)c(Oc4ccccc4)c3C2=O)C(=O)N1 (stereo not shown) [Example 70, [2-(2,6-dioxopiperidin-3-yl)-3-oxo-4-phenoxy-2,3-dihydro-1H-isoindol-5-yl]methyl N-[4-(2-chloro-4-fluorophenoxy)phenyl]carbamate]",223 nM,> 14000 nM,9%,185 nM,94%,>76,–,114%
"COc1cc(Oc2cc(F)c(F)cc2Cl)ccc1NC(=O)OCc1ccc2c(c1OC)C(=O)N(C1CCC(=O)NC1=O)C2 (stereo not shown) [Example 108, [2-(2,6-dioxopiperidin-3-yl)-4-methoxy-3-oxo-2,3-dihydro-1H-isoindol-5-yl]methyl N-[4-(2-chloro-4,5-difluorophenoxy)-2-methoxyphenyl]carbamate]",111 nM,> 14000 nM,24%,99 nM,106%,>142,–,112%
"COc1c(COC(=O)Nc2ccc(Oc3ccccc3C)cc2)ccc2c1C(=O)N(C1CCC(=O)NC1=O)C2 (stereo not shown) [Example 92, [2-(2,6-dioxopiperidin-3-yl)-4-methoxy-3-oxo-2,3-dihydro-1H-isoindol-5-yl]methyl N-{4-[2-(^2H3)methylphenoxy]phenyl}carbamate]",–,> 14000 nM,–,170 nM,–,–,34 nM,–
"COc1c(COC(=O)Nc2ccc(Oc3ccccc3C(F)(F)F)cc2Cl)ccc2c1C(=O)N(C1CCC(=O)NC1=O)C2 (stereo not shown) [Example 90, [2-(2,6-dioxopiperidin-3-yl)-4-methoxy-3-oxo-2,3-dihydro-1H-isoindol-5-yl]methyl N-{2-chloro-4-[2-(trifluoromethyl)phenoxy]phenyl}carbamate]",479 nM,> 14000 nM,10%,200 nM,100%,>70,–,103%

# Further lines, with some results ahead:
"IC50 (Phospho-Rb (Ser807/811); Homo sapiens, OVCAR-3)",DC50 (GSPT1),Dmax (GSPT1),DC50 (Cyclin E1),Dmax (Cyclin E1),Ratio of GSPT1 DC50/Cyclin E1 DC50 (Cyclin E1),IC50 (Phospho-Rb (Ser807/811)),Compound,"Emax (Phospho-Rb (Ser807/811); Homo sapiens, OVCAR-3)"
152 nM,> 14000 nM,32%,152 nM,108%,>92,–,"O=C1CCC(N2Cc3ccc(COC(=O)Nc4ccc(Oc5ccc(F)c(F)c5)cc4)c(O[C@H]4CCOC4)c3C2=O)C(=O)N1 (stereo partly drawn) [Example 152, [2-(2,6-dioxopiperidin-3-yl)-3-oxo-4-[(3S)-oxolan-3-yloxy]-2,3-dihydro-1H-isoindol-5-yl]methyl N-[4-(3,4-difluorophenoxy)phenyl]carbamate]",120%
129 nM,> 14000 nM,14%,156 nM,105%,>89,–,"O=C1CC[C@H](N2Cc3ccc(COC(=O)Nc4ccc(Oc5ccc(F)c(F)c5)cc4)c(OCCCc4ccccc4)c3C2=O)C(=O)N1 [Example 173, {2-[(3S)-2,6-dioxopiperidin-3-yl]-3-oxo-4-(3-phenylpropoxy)-2,3-dihydro-1H-isoindol-5-yl}methyl N-[4-(3,4-difluorophenoxy)phenyl]carbamate]",127%
473 nM,> 14000 nM,16%,204 nM,100%,>69,–,"COC(=O)COc1c(COC(=O)Nc2ccc(Oc3ccc(F)c(F)c3)cc2)ccc2c1C(=O)N(C1CCC(=O)NC1=O)C2 (stereo not shown) [Example 174, Methyl 2-({5-[({[4-(3,4-difluorophenoxy)phenyl]carbamoyl}oxy)methyl]-2-(2,6-dioxopiperidin-3-yl)-3-oxo-2,3-dihydro-1H-isoindol-4-yl}oxy)acetate]",99%
38 nM,> 14000 nM,8%,47 nM,112%,>296,–,"O=C1CCC(N2Cc3ccc(COC(=O)Nc4ccc(Oc5ccc(F)c(F)c5)cc4F)c(O[C@@H]4CCCOC4)c3C2=O)C(=O)N1 (stereo partly drawn) [Example 146, [2-(2,6-dioxopiperidin-3-yl)-4-[(3R)-oxan-3-yloxy]-3-oxo-2,3-dihydro-1H-isoindol-5-yl]methyl N-[4-(3,4-difluorophenoxy)-2-fluorophenyl]carbamate]",133%
96 nM,> 14000 nM,0%,182 nM,100%,>77,–,"O=C1CCC(N2Cc3ccc(COC(=O)Nc4ccc(Oc5cc(F)c(F)c(F)c5)cc4F)c(O[C@@H]4CCCOC4)c3C2=O)C(=O)N1 (stereo partly drawn) [Example 150, [2-(2,6-dioxopiperidin-3-yl)-4-[(3R)-oxan-3-yloxy]-3-oxo-2,3-dihydro-1H-isoindol-5-yl]methyl N-[2-fluoro-4-(3,4,5-trifluorophenoxy)phenyl]carbamate]",137%
